Measured values reported in patent EP0296592A2, “Aminopropanol derivatives of 3-(2-hydroxyphenyl)-1-propanone, process for their preparation and medicines containing these compounds” (Helopharm W. Petrik GmbH & Co.KG., priority 1987, dated 1988).
Counter-ions that a name gives are not always drawn. Like-named read-outs stand apart in the source and are kept apart here.

Legend:
[1] = system: Meerschweinchen-Papillarmuskel; test: Contraction force of the heart on papillary muscle (negative inotropy); format: cell-based; settings: for IC20: concentration that reduces contraction of the papillary muscle by 20 %, read-out: C20 CF
Source text: Die Wirkung auf die Kontraktionskraft des Herzens wurde am Meerschweinchen-Papillarmuskel untersucht. Hämodynamische Studien wurden bei gesunden, wie auch akut infarzierten Hunden durchgeführt.

[2] = system: Purkinje-Fasern aus Hundeherzen; test: Electrophysiological studies on Purkinje fibres (Vmax); format: cell-based, Hund; settings: for IC20: purkinje, read-out: C20 Vmax
Source text: Die antiarrhythmische Wirksamkeit der erfindungsgemäßen Verbindungen wurde sowohl anhand von elektrophysiologischen Studien an Purkinje-Fasern aus Hundeherzen sowie mit Hilfe von Ouabain-induzierten ventrikulären Tachykardien bei Hunden bestimmt. […]
Als zusätzliches Kriterium wurde der Vorzeitigkeitsindex (Prematurity-Faktor) bestimmt, der die erwünschte Wirksamkeit der erfindungsgemäßen Verbindungen bei vorzeitigen Extrasystolen charakterisiert.

[3] = Acute toxicity LD50, rat i.v.; settings: in vivo, iv, Ratte (i.v.), read-out: LD₅₀
Source text: (§1) Dies ergibt sich aus einem Vergleich der LD₅₀-Werte bei Ratten und Mäusen, die in Tabelle (II) zusammengefaßt sind. Tabelle I

[4] = Acute toxicity LD50, mouse i.v.; settings: in vivo, iv, Maus (i.v.), read-out: LD₅₀
Source text: as §1

[5] = (% of control Vmax at cycle length 2000) / (% of control Vmax at cycle length 500) at C20 Vmax
[6] = (% of control Vmax at premature extrasystoles) / (% of control Vmax at a normal beat) at Vmax

Row | SMILES | C20 CF [1] | C20 Vmax [2] | Prematurity Faktor Vmax [2] | Rate-Faktor von Vmax [2] | IC20 [1] [µM] | LD50 [3] [mg/kg] | LD50 [4] [mg/kg] | Rate-Faktor von Vmax [2, 5] | Prematurity Faktor Vmax [2, 6] | IC20 [2] [µM]
1 | CCCNCC(O)COc1ccccc1C(=O)CCc1ccccc1 (centres unmarked) [A, Propafenon, reference compound] | 5,3 µM | 3,7 µM | 0,97 | 1,08 |  |  |  |  |  | 
2 | CCCNCC(O)COc1ccccc1CCC(=O)c1ccc(OC)c(OC)c1.Cl (centres unmarked) [Beispiel 1, 1-(3,4-Dimethoxyphenyl)-3-[2′-(2-hydroxy-3-n-propylaminopropoxy)-phenyl]-1-propanon-hydrochlorid] |  |  |  |  | 15 | 17 | 16 | 5,00 | 0,50 | 12.5
3 | CCC(C)(C)NCC(O)COc1ccccc1CCC(=O)c1ccc(OC)c(OC)c1.Cl (centres unmarked) [Beispiel 2, 1-(3,4-Dimethoxyphenyl)-3-[2′-(2-hydroxy-3-tert.-pentylamino-propoxy)-phenyl]-1-propanon-hydrochlorid] |  |  |  |  | 8 |  |  | 1,27 | 1,15 | 3.6
4 | COc1ccc(C(=O)CCc2ccccc2OCC(O)CNC(C)C)cc1OC.Cl (centres unmarked) [Beispiel 4, 1-(3,4-Dimethoxyphenyl)-3-[2′-(2-hydroxy-3-isopropylamino-propoxy)-phenyl]-1-propanon-hydrochlorid] |  |  |  |  | 22 |  |  | 1,13 | 1,01 | 4.8
5 | COc1ccc(C(=O)CCc2ccccc2OCC(O)CNC(C)(C)C)cc1OC.Cl (centres unmarked) [Beispiel 5, 1-(3,4-Dimethoxyphenyl)-3-[2′-(2-hydroxy-3-tert.-butylamino-propoxy)-phenyl]-1-propanon-hydrochlorid] |  |  |  |  | 12 |  |  | 1,39 | 0,98 | 4.4
6 | COc1ccc(C(=O)CCc2ccccc2OCC(O)CN2CCCCC2)cc1OC (centres unmarked) [Beispiel 6] | 20,0 µM | 11,3 µM | 0,70 | 1,32 |  |  |  |  |  | 
7 | COc1ccc(C(=O)CCc2ccccc2OCC(O)CNCC(C)O)cc1OC (centres unmarked) [Beispiel 7, 1-(3,4-Dimethoxyphenyl)-3-[2′-(2-hydroxy-3(2˝-hydroxy-propylamino)-propoxy)-phenyl]-1-propanon-hydrochlorid] | 18,0 µM | 5,7 µM | 0,98 | 1,39 |  |  |  |  |  | 
8 | COc1ccc(C(=O)CCc2ccccc2OCC(O)CNCCO)cc1OC (centres unmarked) [Beispiel 8, 1-(3,4-Dimethoxyphenyl)-3-[2′-(2-hydroxy-3(2˝-hydroxy-ethylamino)-propoxy)-phenyl]-1-propanon-hydrochlorid] | 13,0 µM | 8,3 µM | 0,97 | 1,34 |  |  |  |  |  | 
9 | CCC(CO)NCC(O)COc1ccccc1CCC(=O)c1ccc(OC)c(OC)c1 (centres unmarked) [Beispiel 9, 1-(3,4-Dimethoxyphenyl)-3-[2′-(2-hydroxy-3-(1˝-hydroxy-but-2-ylamino)-propoxy)-phenyl]-1-propanon-oxalat] | 25,0 µM | 10,2 µM | 0,97 | 1,30 |  |  |  |  |  | 
10 | COc1cc(C(=O)CCc2ccccc2OCC(O)CNC(C)C)cc(OC)c1OC.Cl (centres unmarked) [Beispiel 12, 1-(3,4,5-Trimethoxyphenyl)-3-[2′-(2-hydroxy-3-isopropylamino-propoxy)-phenyl]-1-propanon-hydrochlorid] |  |  |  |  | 18 |  |  | 1,14 | 0,90 | 5.8
11 | COc1cc(C(=O)CCc2ccccc2OCC(O)CNC2CCCCC2)cc(OC)c1OC.Cl (centres unmarked) [Beispiel 16, 1-(3,4,5-Trimethoxyphenyl)-3-[2′-(2-hydroxy-3-cyclohexylamino-propoxy)-phenyl]-1-propanon-hydrochlorid] |  |  |  |  | 9 |  |  | 5,00 | 0,50 | 11.9
12 | COc1cccc(C(=O)CCc2ccccc2OCC(O)CNC(C)C)c1.Cl (centres unmarked) [Beispiel 24, 1-(3-Methoxyphenyl)-3-[2′-(2-hydroxy-3-isopropylamino-propoxy)-phenyl]-1-propanon-hydrochlorid] |  |  |  |  | 10 |  |  | 1,15 | 1,01 | 1.6
13 | CCCNCC(O)COc1ccccc1CCC(=O)c1cccc(OC)c1.Cl (centres unmarked) [Beispiel 26, 1-(3-Methoxyphenyl)-3-[2′-(2-hydroxy-3-n-propylamino-propoxy)-phenyl]-1-propanon-hydrochlorid] |  |  |  |  | 3 |  |  | 1,16 | 0,93 | 1.7
14 | COc1cccc(C(=O)CCc2ccccc2OCC(O)CNC(C)(C)C)c1.Cl (centres unmarked) [Beispiel 27, 1-(3-Methoxyphenyl)-3-[2′-(2-hydroxy-3-tert.-butylamino-propoxy)-phenyl]-1-propanon-hydrochlorid] |  |  |  |  | 4 |  |  | 0,99 | 1,24 | 1.6
15 | COc1ccccc1C(=O)CCc1ccccc1OCC(O)CNC(C)(C)C.Cl (centres unmarked) [Beispiel 38, 1-(2-Methoxyphenyl)-3-[2′-(2-hydroxy-3-tert.-butylamino-propoxy)-phenyl]-1-propanon-hydrochlorid] |  |  |  |  | 7 | 15 | 17 | 1,30 | 0,97 | 1.7
16 | Cc1ccc(C(=O)CCc2ccccc2OCC(O)CNC(C)(C)C)cc1.Cl (centres unmarked) [Beispiel 44, 1-(4-Methylphenyl)-3-[2′-(2-hydroxy-3-tert.-butylamino-propoxy)-phenyl]-1-propanon-hydrochlorid] |  |  |  |  | 6 |  |  | 1,11 | 0,99 | 2.6
17 | Cl.O=C(CCc1ccccc1OCC(O)CNC1CCCCC1)c1ccccc1 (centres unmarked) [Beispiel 46, 1-Phenyl,-3-[2′-(2-hydroxy-3-cyclohexylamino-propoxy)-phenyl]-1-propanon-hydrochlorid] |  |  |  |  | 2 |  |  | 2,50 | 0,92 | 2.2
18 | Cl.O=C(CCc1ccccc1OCC(O)CN1CCCCC1)c1ccccc1 (centres unmarked) [Beispiel 47, 1-Phenyl-3-[2′-(2-hydroxy-3-piperidino-propoxy)-phenyl]-1-propanon-hydrochlorid] |  |  |  |  | 2 |  |  | 1,08 | 0,99 | 0.3
19 | CC(C)(C)NCC(O)COc1ccccc1CCC(=O)c1ccccc1.Cl (centres unmarked) [Beispiel 48, 1-Phenyl-3-[2′-(2-hydroxy-3-tert.-butylamino-propoxy)-phenyl]-1-propanon-hydrochlorid] |  |  |  |  | 3 |  |  | 1,18 | 0,91 | 1
